Laboratory results reported in patent US10851069B2, “Compositions of crystallized hydrophobic compounds and methods of making and using same” (Massachusetts Institute of Technology, priority 2016, dated 2020).

How the values were obtained:
C57BL/6 mice = assay: Anti-fibrotic screening of amorphous drug formulations in 500 μm alginate capsules, 2-week intraperitoneal implantation; format: in vivo; conditions: conclusion; alginate hydrogel, ceramic, glass, PDMS and polystyrene beads
Excerpt: For screening of anti-fibrotic drug activity, amorphous drug formulations were encapsulated inside 500 μm alginate capsules. Broad-spectrum anti-inflammatory agents curcumin, dexamethasone, and rapamycin have been used for preventing fibrosis of various biomaterials, such as polymer PLGA and hydrogel alginate. A panel of lead drug candidates (e.g., compounds of Formulae I-X) including the traditional broad-spectrum anti-inflammatories as well as agents targeted to essential macrophage biology pathways (e.g., TNFα, NFκB, p110δ/PI3K, TGFβ, and CSF1R) were selected. […] SLG20 alginate hydrogel spheres with these lead drug candidates were prepared as amorphous formulations to investigate the effect of macrophage immunomodulation on foreign body response. Drugs were encapsulated in amorphous form prepared by first dissolving in an organic solvent (e.g., vehicle in FIGS. 7, 9) then by mixing with alginate aqueous solution. Efficacy in preventing fibrosis was assessed in C57BL/6 mice at 2-weeks post implantation into the intraperitoneal (IP) cavity. Drug-containing spheres (500 μl/animal) were then implanted into the intraperitoneal space of C57BL/6 mice for 14 days. After this period, spheres were harvested and studied for cellular deposition and fibrosis.
All animal protocols were approved by the MIT Committee on Animal Care, and all surgical procedures and post-operative care was supervised by MIT Division of Comparative Medicine veterinary staff. Immune-competent male non-diabetic or STZ-induced diabetic C57BL/6 mice (Jackson Laboratory, Bar Harbor, Me.) were anesthetized with 3% isoflurane in oxygen and had their abdomens shaved and sterilized using betadine and isopropanol. Preoperatively, all mice also received a 0.05 mg/kg dose of buprenorphine subcutaneously as a pre-surgical analgesic, along with 0.3 mL of 0.9% saline subcutaneously to prevent dehydration. A […] incision was made along the midline of the abdomen and the peritoneal lining was exposed using blunt dissection. […]

[1] = system: non-human primates (cynomolgus macaques); assay: Crystalline GW2580 alginate capsules (0.5 and 1.5 mm) implanted IP and SC in non-human primates, foreign body response; format: in vivo; conditions: for macrophage responses on retrieved capsules (FACS): all cases of remaining drug
Procedure: Lead candidates identified in these studies, like GW2580, were subsequently tested in a non-human primate (NHP) model in which capsules (0.5 and 1.5 mm) were implanted in both the intraperitoneal (IP) and subcutaneous (SC) spaces (FIGS. 12 and 13C). […] IP space (lavage) drug concentrations were traced by LCMS fort each capsule type following retrieval time points, and found to drop from only 2-3 ng/ml at 4 weeks post-implantation to below detectable limit (0.5 ng/ml) beyond. […] And while 0.5 mm drug-loaded capsules became clumped at 3 months, they were not extensively embedded into surrounding omental tissue until 6 months (FIGS. 12, 23B and 23C).
For non-human primate (NHP) procedures, buprenorphine (0.01-0.03 mg/kg) was administered as a pre-operative analgesic. NHPs were then sedated using an intramuscular (IM) injection of ketamine (10 mg/kg) with an addition of midazolam as dictated by DCM vet staff if needed for additional sedation. Animals were maintained on a circulating warm water blanket and covered with a towel during the procedure to maintain body temperature. Either 0.5 or 1.5 mm diameter (drug-loaded) SLG20 spheres were implanted by minimally invasive laparoscopic surgery, and injected into the dorsal (back) regions of 4 non-human primates (cynomolgus macaques) using 18 and 12 gauge custom-manufactured (Harvard Apparatus) sterile stainless steel needles, with slip tip syringes in order to prevent shearing of our biomaterial upon injection. Needles were inserted tangentially to the backs of the NHPs, and were slid (tunneled) approximately 1-2 cm away from the initial injection point, in order to try to separate the injection from that of the site of eventual material response. Spheres (0.5 and 1.5 mm diameter) were injected into 4 total spots on the flank of 4 of our non-human primates: two spots on the left flank and two on the right, for 0.5 mm and 1.5 mm diameter sphere implants, respectively.
For non-human primate intraperitoneal and subcutaneous retrievals, similar to when material was implanted, NHPs were once again given buprenorphine (0.01-0.03 mg/kg) as a pre-operative analgesic, and sedated using an IM injection of ketamine (10 mg/kg), with midazolam as dictated by DCM vet staff if needed for additional sedation. Animals were once again maintained on a circulating warm water blanket and covered with a towel during the procedure to maintain body temperature. 8 mm diameter biopsy punches were then used to sample the entire skin and subcutaneous space at 2 and later at 4 weeks post-implantation. Following biopsy punches, the retrieval site was closed with 3-0 nylon in a simple-interrupted pattern and VetBond (tissue glue). For IP retrievals, minimally invasive laparoscopic surgery was also used (similar to implant procedures). […]

Q: `COc1ccc(COc2ccc(Cc3cnc(N)nc3N)cc2OC)cc1` [GW2580, 5-[[3-Methoxy-4-[(4-methoxyphenyl)methoxy]phenyl]methyl]-2,4-pyrimidinediamine] was tested. Which “efficacy in inhibiting fibrosis of implanted biomaterial” value (C57BL/6 mice) did it give?
A: The value was “demonstrated efficacy in inhibiting fibrosis”.

Q: What about the “sphere embedding and collagen deposition (H&E and Masson's Trichrome)” value ([1]; 0.5 and 1.5 mm drug-loaded capsules, excised implant-site tissue) of the same compound?
A: The value was “lack of sphere embedding and collagen deposition”.

Q: And the “fibrosis development (phase contrast)” value ([1]; crystalline, 0.5 and 1.5 mm capsules, 2 and 4 weeks, IP and SC)?
A: The value was “prevented fibrosis development”.

Q: What about the “macrophage responses on retrieved capsules (FACS)” value ([1]; crystalline, 0.5 and 1.5 mm capsules) of the same compound?
A: The value was “significant inhibition of macrophage responses”.

Q: And the “macrophage responses on retrieved capsules (FACS)” value ([1]; crystalline, 0.5 and 1.5 mm capsules, listed as GW)?
A: Its value is “reduced multiple orders of magnitude”.
